In one experiment the test system is PfFNT. The following applies: cited from earlier work; for IC50: PfFNT expressed in Saccharomyces cerevisiae yeast.
Experiment [1] relates to Plasmodium falciparum 3D7 parasites. Also noted: method as in PMID 23798988. The conditions noted are these: in vitro; cited from earlier work.
The next experiment concerns the target T1, PfFNT-GFP (Plasmodium falciparum, UniProt O77389).
T1 construct: The DNA of full-length PfFNT from Plasmodium falciparum 3D7 was cloned as a C-terminal GFP fusion; expressed in transfected cells; intact cells for imaging, LMNG-solubilized membranes or lysates for FCCS
The experiment can be described thus: FCCS loss of signal screening competition assay. The experiment is classed as binding. The protocol:
With a loss of signal screening assay using the GFP fusion of PfFNT wildtype and BH296-DY647 as the interaction pair, we set out to test the FCCS approach on a selection of 26 compounds that were validated before using functional lactate transport assays in yeast. In more detail, HEK cell lysates were adjusted to a PfFNT-GFP concentration of 4 nM and mixed with fluorescence-labeled BH296-DY647 at a final concentration of 80 nM, approximating the previously determined KD-value of this interaction. A total of 20 µL of the mix was then dispensed into the wells of a glass-bottom 384 microtiter plate. […] The wells were then analyzed by FCCS, Ki values were determined, and compared by a scatter plot to the IC50 values from the previous functional assays in yeast (Figure 6). […]
FCCS measurements were conducted in 384-well glass-bottom plates (cat. no PS96B-G175, SWISSCI, Switzerland) using an Insight plate reader (Evotec Technologies, Germany) fitted with a U-Apo300 40x water immersion lens, NA 1.15 (Olympus, Japan). […] Fluorescence fluctuations were recorded for 8 s with 12 repetitions and analyzed afterward using FCS+plus Analyze 1.1P (Evotec technologies, Version 1.2.5g). […] All KD and IC50 values, as well as kinetic parameters, were determined from three independently repeated experiments. […]

Another experiment concerns PfFNT G107S. Also noted: method as in PMID 23798988. The following applies: PfFNT G107S point mutation; cited from earlier work.
In experiment [2] the test system is resistant parasites that carried a single PfFNT G107S point mutation. Also noted: method as in PMID 23798988. The following applies: cited from earlier work.

“Also recorded” adds a separate entry of the source.

T1 sequence (O77389 whole entry, the tested form may be a part): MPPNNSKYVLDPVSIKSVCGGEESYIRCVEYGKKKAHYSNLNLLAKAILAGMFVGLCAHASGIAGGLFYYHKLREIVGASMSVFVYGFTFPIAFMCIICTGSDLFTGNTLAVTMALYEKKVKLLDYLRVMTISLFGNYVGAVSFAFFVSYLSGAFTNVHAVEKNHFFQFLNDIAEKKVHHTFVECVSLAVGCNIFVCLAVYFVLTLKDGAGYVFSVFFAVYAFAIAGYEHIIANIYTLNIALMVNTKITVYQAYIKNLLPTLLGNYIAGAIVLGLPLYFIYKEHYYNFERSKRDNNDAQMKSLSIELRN

Usually IC50 stands for the concentration that inhibits the measured activity by half. In general, EC50 refers to the midpoint of the concentration-response curve. Consider `O=C1CC(O)(C(F)(F)C(F)(F)F)Oc2ccccc21` (stereo not drawn) [MMV000972, reference compound], for which, in the experiment on PfFNT, the IC50 is 0.17 µM. Further, the EC50 in experiment [1] was 1.7 µM.
A word on the Ki: it is the equilibrium dissociation constant of an inhibitor or competing ligand from its target. A higher Ki goes with weaker binding. Consider `O=C(/C=C(\O)C(F)(F)C(F)(F)F)c1ccc(C(=O)/C=C(\O)C(F)(F)C(F)(F)F)cc1` [BH454], for which the Ki at PfFNT-GFP was less than 0.1 µM. Also, the “Ki (affinity) from FCCS competition screen” value on PfFNT-GFP (4 nM PfFNT-GFP, 80 nM BH296-DY647, 1 h room temperature) is “double-digit nanomolar range”. In addition, in the experiment with PfFNT (validated before), the “activity in functional yeast lactate transport assay” value was “little activity; also recorded: not very effective”.
With `COc1ccc2c(c1)OC(O)(C(F)(F)C(F)(F)F)CC2=O` (stereo not drawn) [MMV007839], the results for the IC50 in the experiment on PfFNT and with PfFNT G107S were 0.17 µM and 21 µM, respectively. Further, the EC50 is 0.14 µM in experiment [1] and 35 µM in experiment [2].

These data come from publication PMC8399565, “Fluorescence Cross-Correlation Spectroscopy Yields True Affinity and Binding Kinetics of Plasmodium Lactate Transport Inhibitors” (Pharmaceuticals, 2021).
